The subject of experiment [1] is M8 (RNA, aptamer) GGGUUUGGGUAGUCGAUUCGACUGAAUGCCGCGUAGGCUUCGCUACUGGCUUCUACUACGUACCCAAACCC
Briefly: ITC. The conditions noted are these: 0.25 mM K+, 20 mM Na+, 5 mM Mg2+; 1x CSB (40 mM HEPES pH 7.4), 25 °C; 30 µM RNA, 500 µM LFX; one-site model.

Experiment [2] deals with LxB1 (RNA, aptamer) GGGCAACUCCAAGCUAGAUCUACCGGUGUGUAACGGAAGCACAAAGGUGCCUCCUACAGCAGGUCUUCUACUGGCUUCUACUGAUACACUAAAAUGGCUAGCAAAGGAGAAGAACUUUUCACU
Briefly: elution from immobilised Capture-ON. As to conditions: 0.25 mM K+, 20 mM Na+, 5 mM Mg2+, 1x CSB (40 mM HEPES pH 7.4), DNA Capture-ON displaced.

Experiment [3] relates to LxCsh (RNA, aptamer) GGGUUUGGGUAGUGCGAUUCGCACUGAAUGCCGCGUAGGCUUCGCUACUGGCUUCUACUACGUACCCAAACCC
Briefly: lateral flow assay, Capture-ON displacement. As to conditions: 0.25 mM K+, 20 mM Na+, 5 mM Mg2+, 1x CSB (40 mM HEPES pH 7.4), room temperature, 6FAM Capture-ON displaced.

The subject of experiment [4] is M6 (RNA, aptamer) GGGUUUGGGUAGCGAUUCGCUGAAUGCCGCGUAGGCUUCGCUACUGGCUUCUACUACGUACCCAAACCC
Briefly: ITC. As to conditions: 0.25 mM K+, 20 mM Na+, 5 mM Mg2+; 1x CSB (40 mM HEPES pH 7.4), 25 °C; 30 µM RNA, 500 µM LFX in syringe.

Experiment [5] deals with LxF (RNA, aptamer) GGGCAACUCCAAGCUAGAUCUACCGGUGCAGGUCUGGGAACUCGUUCCCGGCUCCAGCUGGAUUCUUCUACUGGCUUCUAGCCCGACCGGAAAAUGGCUAGCAAAGGAGAAGAACUUUUCACU
Briefly: elution from immobilised Capture-ON. As to conditions: 0.25 mM K+, 20 mM Na+, 5 mM Mg2+; 1x CSB (40 mM HEPES pH 7.4); 1 mM LFX; DNA Capture-ON displaced.

For experiment [6], the system named is LxCsh (RNA, aptamer) GGGUUUGGGUAGUGCGAUUCGCACUGAAUGCCGCGUAGGCUUCGCUACUGGCUUCUACUACGUACCCAAACCC
Briefly: ITC. As to conditions: 0.25 mM K+, 20 mM Na+, 5 mM Mg2+; 1x CSB (40 mM HEPES pH 7.4), 25 °C; 30 µM RNA, 500 µM LFX; one-site model.

The subject of experiment [7] is M5 (RNA, aptamer) GGGUUUGGGUAGUUUCGACUGAAUGCCGCGUAGGCUUCGCUACUGGCUUCUACUACGUACCCAAACCC
Briefly: ITC. As to conditions: 0.25 mM K+, 20 mM Na+, 5 mM Mg2+; 1x CSB (40 mM HEPES pH 7.4), 25 °C; 30 µM RNA, 500 µM LFX in syringe.

The subject of experiment [8] is M12 (RNA, aptamer) GGGUUUGGGUGAAUGCCGCGUAGGCUUCGCUACUGGCUUCUACUACGUACCCAAACCC
Briefly: ITC. The conditions noted are these: 0.25 mM K+, 20 mM Na+, 5 mM Mg2+; 1x CSB (40 mM HEPES pH 7.4), 25 °C; 30 µM RNA, 500 µM LFX in syringe.

For experiment [9], the system named is M11 (RNA, aptamer) GGGUUUGGGUAGUGCGAUUCGCACUGAAUGCUUCGGCUUCUACUACGUACCCAAACCC
Briefly: ITC. The conditions noted are these: 0.25 mM K+, 20 mM Na+, 5 mM Mg2+; 1x CSB (40 mM HEPES pH 7.4), 25 °C; 30 µM RNA, 500 µM LFX in syringe.

Experiment [10] has as its system LxE (RNA, aptamer) GGGCAACUCCAAGCUAGAUCUACCGGUCGUAGUGGACCUGUUUAGGUUUGCAUACGUUAGAUGUCUUCUACUGGCUUCUAAAUCGAACCGAAAAUGGCUAGCAAAGGAGAAGAACUUUUCACU
Briefly: elution from immobilised Capture-ON. As to conditions: 0.25 mM K+, 20 mM Na+, 5 mM Mg2+; 1x CSB (40 mM HEPES pH 7.4); 1 mM LFX; DNA Capture-ON displaced.

Experiment [11] deals with M4 (RNA, aptamer) GGGUUUGGGUAGUGCGAUUCGCACUGAAUGCCGGUAGGCUUCGCUACUGGCUUCUACUACGUACCCAAACCC
Briefly: ITC. As to conditions: 0.25 mM K+, 20 mM Na+, 5 mM Mg2+; 1x CSB (40 mM HEPES pH 7.4), 25 °C; 30 µM RNA, 500 µM LFX in syringe.

Experiment [12] concerns M1 (RNA, aptamer) GGGUAUGGGUAGUGCGAUUCGCACUGAAUGCCGCGUAGGCUUCGCUACUGGCUUCUACUACGUACCCAUACCC
Briefly: ITC. The conditions noted are these: 0.25 mM K+, 20 mM Na+, 5 mM Mg2+; 1x CSB (40 mM HEPES pH 7.4), 25 °C; 30 µM RNA, 500 µM LFX; one-site model.

The test system of experiment [13] is LxB2 (RNA, aptamer) GGGCAACUCCAAGCUAGAUCUACCGGUGUGUAACGGAAGCACAAAGGUGCCUCCUACAGCAGGUCUUCUACUGGCUUCUACUGAUACGCUAAAAUGGCUAGCAAAGGAGAAGAACUUUUCACU
Briefly: elution from immobilised Capture-ON. The conditions noted are these: 0.25 mM K+, 20 mM Na+, 5 mM Mg2+, 1x CSB (40 mM HEPES pH 7.4), DNA Capture-ON displaced.

For experiment [14], the system named is LxA1 (RNA, aptamer) GGGCAACUCCAAGCUAGAUCUACCGGUUUUUUCAGGCGGCUUAAAAACCAGGAAAGGUGGAGACUUCUACUGGCUUCUAUCCAGCCGGUAAAAUGGCUAGCAAAGGAGAAGAACUUUUCACU
Briefly: elution from immobilised Capture-ON. The conditions noted are these: 0.25 mM K+, 20 mM Na+, 5 mM Mg2+; 1x CSB (40 mM HEPES pH 7.4); 1 mM LFX; DNA Capture-ON displaced.

Experiment [15] relates to M13 (RNA, aptamer) GGGUUUGGGUAGAAUGCCGCGUAGGCUUCGCUACUGGCUUCUACUACGUACCCAAACCC
Briefly: ITC. As to conditions: 0.25 mM K+, 20 mM Na+, 5 mM Mg2+; 1x CSB (40 mM HEPES pH 7.4), 25 °C; 30 µM RNA, 500 µM LFX in syringe.

For experiment [16], the system named is M3 (RNA, aptamer) GGGUUUGGGUAGUGCGAUUCGCACUGAAGCCGCGUAGGCUUCGCUACUGGCUUCUACUACGUACCCAAACCC
Briefly: ITC. As to conditions: 0.25 mM K+, 20 mM Na+, 5 mM Mg2+; 1x CSB (40 mM HEPES pH 7.4), 25 °C; 30 µM RNA, 500 µM LFX in syringe.

Experiment [17] relates to LxA2 (RNA, aptamer) GGGCAACUCCAAGCUAGAUCUACCGGUUUUUUCUGGCGGCUUAAAAACCAGGAAAGGUGGAGACUUCUACUGGCUUCUAUCCAGCCGGUAAAAUGGCUAGCAAAGGAGAAGAACUUUUCACU
Briefly: elution from immobilised Capture-ON. The conditions noted are these: 0.25 mM K+, 20 mM Na+, 5 mM Mg2+; 1x CSB (40 mM HEPES pH 7.4); 1 mM LFX; DNA Capture-ON displaced.

The subject of experiment [18] is LxC (RNA, aptamer) GGGCAACUCCAAGCUAGAUCUACCGGUUUGGGUAGUGCGAUUCGCACUGAAUGCCGCGUAGGCUUCGCUACUGGCUUCUACUACGUACCCAAAAUGGCUAGCAAAGGAGAAGAACUUUUCACU
Briefly: elution from immobilised Capture-ON. As to conditions: 0.25 mM K+, 20 mM Na+, 5 mM Mg2+, 1x CSB (40 mM HEPES pH 7.4), DNA Capture-ON displaced.

For experiment [19] the test system is unchanged. Briefly: ITC. As to conditions: 0.25 mM K+, 20 mM Na+, 5 mM Mg2+; 1x CSB (40 mM HEPES pH 7.4), 25 °C; 30 µM RNA, 500 µM LFX; one-site model.
Experiment [20] concerns M9 (RNA, aptamer) GGGUUUGGGUAGUCGUUCGCGACUGAAUGCCGCGUAGGCUUCGCUACUGGCUUCUACUACGUACCCAAACCC
Briefly: ITC. The conditions noted are these: 0.25 mM K+, 20 mM Na+, 5 mM Mg2+; 1x CSB (40 mM HEPES pH 7.4), 25 °C; 30 µM RNA, 500 µM LFX; one-site model.

Experiment [21] deals with M14 (RNA, aptamer) GGGCGCACUGAAUGCCGCGUAGGCUUCGCUACUGGCUUCUACUACGUAUAGUGCGCCC
Briefly: ITC. As to conditions: 0.25 mM K+, 20 mM Na+, 5 mM Mg2+; 1x CSB (40 mM HEPES pH 7.4), 25 °C; 30 µM RNA, 500 µM LFX in syringe.

Experiment [22] deals with M10 (RNA, aptamer) GGGUUUGGGUAGUGCGAUUCGCACUGAAUGCCGCGUAGUUCGCUACUGGCUUCUACUACGUACCCAAACCC
Briefly: ITC. The conditions noted are these: 0.25 mM K+, 20 mM Na+, 5 mM Mg2+; 1x CSB (40 mM HEPES pH 7.4), 25 °C; 30 µM RNA, 500 µM LFX in syringe.

Experiment [23] relates to LxD (RNA, aptamer) GGGCAACUCCAAGCUAGAUCUACCGGUCUAGUGCCUCAACUAGCCGAACCGUGGUCGUCUUCAUGCCUACUGGCUUCUACGAGAUAAAUAAAAUGGCUAGCAAAGGAGAAGAACUUUUCACU
Briefly: elution from immobilised Capture-ON. As to conditions: 0.25 mM K+, 20 mM Na+, 5 mM Mg2+, 1x CSB (40 mM HEPES pH 7.4), DNA Capture-ON displaced.

Experiment [24] deals with M7 (RNA, aptamer) GGGUUUGGGUAUGAAUGCCGCGUAGGCUUCGCUACUGGCUUCUACUACGUACCCAAACCC
Briefly: ITC. The conditions noted are these: 0.25 mM K+, 20 mM Na+, 5 mM Mg2+; 1x CSB (40 mM HEPES pH 7.4), 25 °C; 30 µM RNA, 500 µM LFX in syringe.

Experiment [25] relates to M2 (RNA, aptamer) GGGUUUGCGUAGUGCGAUUCGCACUGAAUGCCGCGUAGGCUUCGCUACUGGCUUCUACUACGUACGCAAACCC
Briefly: ITC. The conditions noted are these: 0.25 mM K+, 20 mM Na+, 5 mM Mg2+; 1x CSB (40 mM HEPES pH 7.4), 25 °C; 30 µM RNA, 500 µM LFX; one-site model.

Each structure is given as a SMILES string.

For two molecules, Kd, binding and fraction eluted results are on record in publication PMC10813692 (2024).

By Kd is commonly meant the concentration at which binding is half-saturated. Read a low Kd as tighter binding. With `C[C@H]1COc2c(N3CCN(C)CC3)c(F)cc3c(=O)c(C(=O)O)cn1c23`, the Kd in experiment [1] was found to be 6 ± 3 µM; in experiment [6] it was 6 µM; in experiment [12], 5 ± 6 µM; in experiment [19] it was 6 µM; in experiment [20], 3 ± 3 µM; in experiment [25] it was 4 ± 1 µM. For the same molecule, the binding entry in experiment [2] (1 mM LFX) is “yes”; in [3] (signal at 100 µM and above) it was “yes”; in experiment [4], “no”; in [5] it was “yes”; in experiment [7], “no”; in experiment [8] it was “no”. Also, the binding result in experiment [9] was “no”; in experiment [10], “yes”; in experiment [11], “no”; in experiment [13] (1 mM LFX), “yes”; in [14] it was “yes”; in experiment [15], “no”. Moreover, the binding result in [16] was “no”; in experiment [17], “yes”; in [21], “no”; in [22] it was “no”; in [24], “no”. The results for the fraction eluted in experiment [18] (1 mM LFX) and in experiment [23] (1 mM LFX) were 27.4% and 47.3%, respectively.

Regarding `O=C(O)c1cn(C2CC2)c2cc(N3CCNCC3)c(F)cc2c1=O`, the binding entry is listed as “weak” in experiment [2] (1 mM CFX, LFX/CFX elution ratio 2.2); “weak” in experiment [3] (up to 5000 µM); “weak” in experiment [13] (1 mM CFX, LFX/CFX elution ratio 2.1); “weak” in [18] (1 mM CFX, LFX/CFX elution ratio 3.2); “weak” in experiment [23] (1 mM CFX, LFX/CFX elution ratio 2.6).
